In publication PMC2364081, “Antagonists of retinoic acid receptors (RARs) are potent growth inhibitors of prostate carcinoma cells” (British Journal of Cancer, 2001):

Tests used:
RARs = assay: Binding to RARs (stated over all three subtypes); settings: range over RARα, RARβ and RARγ
Source text: (§1) Prostate cancer is one of the most common cancers in European and American males and has a high mortality rate (Landis et al, 1998; Rosenthal, 1998). Early disease is managed conservatively in Europe although in selected patients surgery is curative. In advanced disease, androgen ablation can produce symptomatic improvement, but the tumour often re-emerges in an androgen- independent and incurable form. One proposed treatment for androgen-independent prostate carcinoma is differentiation ther- apy, in which agents such as all-trans-retinoic acid (ATRA), 9-cis- retinoic acid and 1, 25-dihydroxyvitamin D3 (D3 ) are used to induce growth arrest, differentiation and sometimes apoptosis of the tumour cells (Liang et al, 1999; de Vos et al, 1997; Skowronski et al, 1994; Hedlund et al, 1997). ATRA and synthetic analogues exert their biological effects by binding to two families of retinoid receptors, […]. These are ligand-dependent transcription factors of the steroid/thyroid hormone nuclear receptor superfamily (Chambon 1994; Boehm et al, 1995). Activated RARs bind to retinoic acid-responsive elements (RAREs) in the promoters of genes and thus regulate gene expression. They also antagonize the activity of the tran- scription factor AP1 and thereby down-regulate the expression of some AP1-activated genes (Nagpal et al, 1995). […]

[1] = test system: FBS-grown LNCaP, DU145 and PC3 cells; assay: Plate colony formation assay, stated over the three FBS-grown lines; format: cell-based, human; settings: 100 nM
Source text: as §1

HL60 cells [2] = assay: ATRA-induced differentiation of HL60 cells to neutrophils (nitroblue tetrazolium reduction); format: cell-based, human; settings: antagonist at 100 nM added with 100 nM ATRA
Source text: as §1

RARα = molecular target: T1, RARα (Homo sapiens, UniProt P10276); assay: Binding to baculovirus-expressed RARα; set-up: made in house; settings: baculovirus-expressed receptor
T1 sequence (P10276 1-462): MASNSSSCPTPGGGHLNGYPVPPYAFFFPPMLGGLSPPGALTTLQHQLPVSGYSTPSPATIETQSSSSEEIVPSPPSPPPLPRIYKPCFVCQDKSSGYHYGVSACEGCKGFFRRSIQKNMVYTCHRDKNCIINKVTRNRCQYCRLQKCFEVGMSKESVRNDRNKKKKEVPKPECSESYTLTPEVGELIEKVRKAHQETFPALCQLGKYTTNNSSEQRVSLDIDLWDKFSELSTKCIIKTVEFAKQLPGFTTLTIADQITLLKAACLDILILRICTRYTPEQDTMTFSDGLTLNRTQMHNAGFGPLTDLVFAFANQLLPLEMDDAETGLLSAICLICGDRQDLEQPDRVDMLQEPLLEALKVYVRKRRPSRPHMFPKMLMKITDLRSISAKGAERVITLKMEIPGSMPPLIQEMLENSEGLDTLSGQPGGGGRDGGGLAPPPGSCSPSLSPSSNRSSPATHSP
Source text: (§2) Prostate cancer is one of the most common cancers in European and American males and has a high mortality rate (Landis et al, 1998; Rosenthal, 1998). Early disease is managed conservatively in Europe although in selected patients surgery is curative. In advanced disease, androgen ablation can produce symptomatic improvement, but the tumour often re-emerges in an androgen- independent and incurable form. One proposed treatment for androgen-independent prostate carcinoma is differentiation ther- apy, in which agents such as all-trans-retinoic acid (ATRA), 9-cis- retinoic acid and 1, 25-dihydroxyvitamin D3 (D3 ) are used to induce growth arrest, differentiation and sometimes apoptosis of the tumour cells (Liang et al, 1999; de Vos et al, 1997; Skowronski et al, 1994; Hedlund et al, 1997). ATRA and synthetic analogues exert their biological effects by binding to two families of retinoid receptors, […]. These are ligand-dependent transcription factors of the steroid/thyroid hormone nuclear receptor superfamily (Chambon 1994; Boehm et al, 1995). Activated RARs bind to retinoic acid-responsive elements (RAREs) in the promoters of genes and thus regulate gene expression. They also antagonize the activity of the tran- scription factor AP1 and thereby down-regulate the expression of some AP1-activated genes (Nagpal et al, 1995). One approach to unravelling the contributions of RAR sub-types to these actions has been the development of synthetic retinoids with selective activities at individual RARs and RXRs. For example, the diaryl- acetylenic retinoids allow separation of transactivation and AP1 antagonism functions at RAR (Nagpal et al, 1995). Recently, compounds that are selective for particular RAR sub-types have been synthesized: these include both agonists and antagonists (Chandraratna, 1995; Teng et al, 1999; Johnson et al, 1999). The functional selectivity of these compounds may open the way to achieving differentiation or apoptosis of tumour cells with minimal systemic side effects (Chandraratna, 1995). Cell lines that are commonly used in the evaluation of investiga- tional agents for prostate cancer include LNCaP, DU-145 and PC- 3. […] These lines are relatively insensitive to growth inhibition and induction of apoptosis by ATRA and by synthetic agonists. […] Fenretinide (4HPR) induces apoptosis of LNCaP and of PC-3 cells at 1-5 M and 25 µM, respectively (Pienta et al, 1993; Heish and Wu, 1997). Pfahl and colleagues examined the growth inhibitory effects of a panel of receptor-selective retinoids against DU145 and PC-3 cells and achieved complete growth inhibition and induction of apoptosis between 1 M and 10 M (Lu et al, 1999). […] Antagonists of retinoic acid receptors (RARs) are potent growth inhibitors of prostate carcinoma cells LA Hammond1 , CH Van Krinks2 , J Durham2 , SE Tomkins2 , RD Burnett3 , EL Jones1 , RAS Chandraratna3 and G Brown2 Divisions of 1 Cancer Studies and of 2 Immunity and Infection, University of Birmingham Medical School, Edgbaston, Birmingham B15 2TT, UK and 3 Retinoid Research, Allergan Inc., Irvine, California, USA Summary Novel synthetic antagonists of retinoic acid receptors (RARs) have been developed. To avoid interference by serum retinoids when testing these compounds, we established serum-free grown sub-lines (>3 years) of the prostate carcinoma lines LNCaP, PC3 and DU145. […] A component(s) of serum and of LNCaP-conditioned medium diminishes the activity of antagonists: this factor is not the most likely candidates IGF-1 and EGF. In vitro studies of RAR antagonists together with data from RAR-null mice lead to the hypothesis that RAR-regulated gene transcription is necessary for the survival and maintenance of prostate epithelium. […]

DU145 ITS+ cells = assay: Plate colony formation assay, serum-free (ITS+)-grown DU145; format: cell-based, human; settings: 14 days
Source text: Prostate cancer is one of the most common cancers in European and American males and has a high mortality rate (Landis et al, 1998; Rosenthal, 1998). Early disease is managed conservatively in Europe although in selected patients surgery is curative. In advanced disease, androgen ablation can produce symptomatic improvement, but the tumour often re-emerges in an androgen- independent and incurable form. One proposed treatment for androgen-independent prostate carcinoma is differentiation ther- apy, in which agents such as all-trans-retinoic acid (ATRA), 9-cis- retinoic acid and 1, 25-dihydroxyvitamin D3 (D3 ) are used to induce growth arrest, differentiation and sometimes apoptosis of the tumour cells (Liang et al, 1999; de Vos et al, 1997; Skowronski et al, 1994; Hedlund et al, 1997). ATRA and synthetic analogues exert their biological effects by binding to two families of retinoid receptors, the RARs (RAR, RAR and RAR) and the RXRs (RXR, RXR and RXR). These are ligand-dependent transcription factors of the steroid/thyroid hormone nuclear receptor superfamily (Chambon 1994; Boehm et al, 1995). Activated RARs bind to retinoic acid-responsive elements (RAREs) in the promoters of genes and thus regulate gene expression. They also antagonize the activity of the tran- scription factor AP1 and thereby down-regulate the expression of some AP1-activated genes (Nagpal et al, 1995). One approach to unravelling the contributions of RAR sub-types to these actions has been the development of synthetic retinoids with selective activities at individual RARs and RXRs. For example, the diaryl- acetylenic retinoids allow separation of transactivation and AP1 antagonism functions at RAR (Nagpal et al, 1995). Recently, compounds that are selective for particular RAR sub-types have been synthesized: these include both agonists and antagonists (Chandraratna, 1995; Teng et al, 1999; Johnson et al, 1999). The functional selectivity of these compounds may open the way to achieving differentiation or apoptosis of tumour cells with minimal systemic side effects (Chandraratna, 1995). […]

HL60 cells [3] = assay: Clonal growth of single serum-free grown HL60 cells in microtitre wells; format: cell-based, human
Source text: as §2

RARβ = molecular target: T2, RARβ (Homo sapiens, UniProt P10826); assay: Binding to baculovirus-expressed RARβ; set-up: made in house; settings: baculovirus-expressed receptor
T2 sequence (P10826 1-455): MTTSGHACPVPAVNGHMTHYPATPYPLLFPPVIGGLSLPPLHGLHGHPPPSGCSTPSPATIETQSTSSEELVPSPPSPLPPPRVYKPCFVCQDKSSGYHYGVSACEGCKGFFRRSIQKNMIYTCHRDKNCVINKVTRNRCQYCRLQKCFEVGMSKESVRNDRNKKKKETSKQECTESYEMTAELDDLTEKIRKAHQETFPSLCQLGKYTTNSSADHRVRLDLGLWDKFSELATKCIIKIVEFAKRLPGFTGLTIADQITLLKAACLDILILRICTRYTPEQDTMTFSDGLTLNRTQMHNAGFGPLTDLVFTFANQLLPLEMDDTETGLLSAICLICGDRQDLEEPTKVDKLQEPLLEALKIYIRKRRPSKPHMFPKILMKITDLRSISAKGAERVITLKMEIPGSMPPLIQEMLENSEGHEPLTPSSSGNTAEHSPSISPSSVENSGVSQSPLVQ
Source text: as §2

Question: Which results are given for `CCc1ccc(C2=CC(C)(C)Sc3ccc(C#Cc4ccc(C(=O)O)cc4)cc32)cc1` [AGN194310]?
Answer: Kd (RARs): 2 to 5 nM; inhibition of colony formation [1]: 11-23%; percentage of mature cells (HL60 cells [2]): 5%; Kd (RARα): 3 nM; IC50 (DU145 ITS+ cells): 34 nM; effect on clonal growth of HL60 cells (HL60 cells [3]): did not adversely affect; viability of the single cells (HL60 cells [3]; 0.1 µM): > 95%; number of viable cells at day 4 (HL60 cells [3]; 100 nM, control 18): 17; cloning efficiency (HL60 cells [3]; 100 nM, same as untreated): 90-93%; Kd (RARβ): 2 nM
